Assay results: PMC9646841, “A bead-based GPCR phosphorylation immunoassay for high-throughput ligand profiling and GRK inhibitor screening” (Communications Biology, 2022)
Values joined by “and” are separate entries in the source; they are usually repeats but may differ in a detail not shown here. Equal values may be shown once. Square brackets hold non-standard residues; d marks the D form. Peptide text beside a SMILES is read from it. Cha = N[C@@H](CC1CCCCC1)C(=O)O; dCha = N[C@H](CC1CCCCC1)C(=O)O

What was measured:
Assay type in all cases: cell-based
C5a1 [1] = molecular target: T1, C5a1 (Homo sapiens, UniProt P21730); assay: pS338/pT339-C5a1 7TM phosphorylation assay; conditions: for Emax: read-out: Emax (% Control C028) pS338/pT339-C5a1
T1 construct: host or cells: Control-HEK293, ΔGRK2/3-HEK293, ΔGRK5/6-HEK293, stably expressing
T1 sequence (P21730 1-350): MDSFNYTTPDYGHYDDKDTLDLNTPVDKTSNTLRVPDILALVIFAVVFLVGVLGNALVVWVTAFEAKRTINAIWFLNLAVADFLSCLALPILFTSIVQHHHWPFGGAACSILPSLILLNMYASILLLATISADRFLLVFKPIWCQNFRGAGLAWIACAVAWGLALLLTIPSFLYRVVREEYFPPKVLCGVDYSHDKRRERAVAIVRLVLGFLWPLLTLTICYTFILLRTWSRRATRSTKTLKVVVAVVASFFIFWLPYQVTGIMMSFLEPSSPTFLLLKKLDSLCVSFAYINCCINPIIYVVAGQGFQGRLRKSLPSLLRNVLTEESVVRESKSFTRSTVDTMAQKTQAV

C5a1 [2] = molecular target: T1, C5a1; assay: pS332/pS334-C5a1 7TM phosphorylation assay; conditions: for Emax: read-out: Emax (% Control C028) pS332/pS334-C5a1
C5a1 [3] = molecular target: T1, C5a1; assay: pT324/pS327-C5a1 7TM phosphorylation assay; conditions: for Emax: read-out: Emax (% Control C028) pT324/pS327-C5a1
[4] = C028 0.1 µM, ΔGRK5/6-C5aR1-HEK293
[5] = C028 3 µM, Control-C5aR1-HEK293
[6] = C028 10 µM, ΔGRK5/6-C5aR1-HEK293, concentration series
[7] = Control-C5aR1-HEK293, C028 10 µM (concentration series)
[8] = Control-C5aR1-HEK293, C028 3 µM
[9] = ΔGRK2/3-C5aR1-HEK293, C028 0.01 µM
[10] = ΔGRK2/3-C5aR1-HEK293, C028 0.3 µM
[11] = ΔGRK2/3-C5aR1-HEK293, C028 10 µM (concentration series)
[12] = ΔGRK5/6-C5aR1-HEK293, C028 0.01 µM
[13] = ΔGRK5/6-C5aR1-HEK293, C028 0.1 µM

## N=C(N)NCCC[C@@H](NC(=O)[C@H](CC1CCCCC1)NC(=O)[C@@H](CC1CCCCC1)NC(=O)[C@@H]1CCCN1C(=O)[C@H](CCCCN)NC(=O)[C@@H](N)Cc1ccccc1)C(=O)O [C028, FKP-(D-Cha)-Cha-r] (H-FKP[dCha][Cha][dR]-OH)
C5a1 [1]; C028 0.01 µM, ΔGRK5/6-C5aR1-HEK293
  pS338/pS339 signal, raw: 0.1914 and 0.1791 and 0.1104 and 0.1268 and 0.0959 and 0.1124 and 0.1275 and 0.1571
C5a1 [1]; C028 0.1 µM, Control-C5aR1-HEK293
  pS338/pS339 signal, raw: 0.1875 and 0.2099 and 0.2083 and 0.1715 and 0.263 and 0.2723 and 0.28 and 0.2721
C5a1 [1]; C028 0.1 µM, ΔGRK2/3-C5aR1-HEK293
  pS338/pS339 normalized: 4.55% and 4.75% and 2.09% and -0.74% and 0.95% and 1.57% and 2.54% and 3.37%
C5a1 [1]; [4]
  pS338/pS339 normalized: 6.77% and 12.22% and 6.57% and 4.14% and 6.71% and 9.50% and 2.76% and 5.82%
  pS338/pS339 signal, raw: 0.1912 and 0.1825 and 0.1703 and 0.1709 and 0.1421 and 0.1595 and 0.2215 and 0.2673
C5a1 [1]; [5]
  pS338/pS339 normalized: 78.61% and 86.74% and 85.12% and 75.44% and 123.11% and 90.88% and 72.00% and 99.45%
  pS338/pS339 signal, raw: 0.8634 and 0.695 and 1.1554 and 0.7958 and 0.9051 and 1.0337 and 0.9787 and 0.9442
C5a1 [1]; C028 10 µM, Control-C5aR1-HEK293, concentration series
  pS338/pS339 normalized: 92.58% and 105.20% and 87.15% and 107.72% and 114.82% and 97.73% and 96.48% and 106.05%
C5a1 [1]; C028 10 µM, Control-C5aR1-HEK293, last 0/10 µM pair of Control block
  pS338/pS339 signal, raw: 0.8171 and 0.9223 and 0.6743 and 0.8573 and 1.0399 and 1.1081
C5a1 [1]; C028 10 µM, Control-C5aR1-HEK293 beside ΔGRK5/6 block
  pS338/pS339 signal, raw: 1.1983 and 1.0585 and 0.7547 and 0.8921 and 1.3122 and 1.2783 and 1.4177 and 1.3015
C5a1 [1]; [6]
  pS338/pS339 normalized: 60.81% and 85.60% and 54.29% and 47.10% and 52.27% and 73.34% and 65.73% and 72.42%
  pS338/pS339 signal, raw: 0.6953 and 0.6053 and 0.6054 and 0.6811 and 0.925 and 0.7569 and 1.0104 and 1.1456
C5a1 [1]; Control-HEK293
  Emax: 100%
C5a1 [1]; pEC50 pS338/pT339-C5a1, Control-HEK293
  EC50: 631 nM
C5a1 [1]; pEC50 pS338/pT339-C5a1, ΔGRK2/3-HEK293
  EC50: 1000 nM
C5a1 [1]; ΔGRK2/3-HEK293
  Emax: 55.2%
C5a1 [1]; ΔGRK5/6-HEK293
  Emax: 63.9%
C5a1 [2]
  OD405 max pS332/pS334-C5a1: 1.06
  OD405 min pS332/pS334-C5a1: 0.11
C5a1 [2]; [7]
  pS332/pS334 normalized: 95.44% and 132.42% and 80.61% and 80.15% and 121.12% and 109.12% and 102.49% and 106.48%
C5a1 [2]; Control-C5aR1-HEK293 run beside the ΔGRK2/3 block, C028 10 µM
  pS332/pS334 (raw signal): 0.7901 and 0.7373 and 0.8202 and 0.7545 and 1.029 and 1.2201
C5a1 [2]; Control-HEK293
  Emax: 100%
C5a1 [2]; pEC50 pS332/pS334-C5a1, Control-HEK293
  EC50: 398 nM
C5a1 [2]; pEC50 pS332/pS334-C5a1, ΔGRK2/3-HEK293
  EC50: 501 nM
C5a1 [2]; ΔGRK2/3-C5aR1-HEK293, C028 0.01 µM, concentration series
  pS332/pS334 (raw signal): 0.1764 and 0.1748 and 0.1484 and 0.1388 and 0.1181 and 0.1479 and 0.1441
C5a1 [2]; ΔGRK2/3-C5aR1-HEK293, C028 1 µM, concentration series
  pS332/pS334 (raw signal): 0.699 and 0.3955 and 0.6071 and 0.387 and 0.4065 and 0.4411 and 0.6614 and 0.6847
C5a1 [2]; ΔGRK2/3-C5aR1-HEK293, C028 10 µM, first 0/10 µM column pair
  pS332/pS334 (raw signal): 0.4715 and 0.6645 and 0.5267 and 0.3753 and 0.6914 and 0.6912 and 0.5711 and 0.6282
C5a1 [2]; ΔGRK2/3-HEK293
  Emax: 70.2%
C5a1 [2]; ΔGRK5/6-HEK293
  Emax: 50.8%
C5a1 [3]
  OD405 max pT324/pS327-C5a1: 1.26
  OD405 min pT324/pS327-C5a1: 0.01
C5a1 [3]; Control-C5aR1-HEK293, C028 0.01 µM
  pT324/pS327 phosphorylation, normalized: 6.54% and 2.09% and 2.38% and -0.26% and 4.73% and 4.23% and 0.13% and 0.29%
C5a1 [3]; Control-C5aR1-HEK293, C028 0.1 µM
  pT324/pS327-C5aR1 Phosphorylation Assay, raw signal: 0.2603 and 0.2849 and 0.4452 and 0.4009 and 0.2355 and 0.392 and 0.2309 and 0.3621
C5a1 [3]; [8]
  pT324/pS327-C5aR1 Phosphorylation Assay, raw signal: 0.8349 and 0.7369 and 1.3757 and 1.2873 and 1.162 and 1.2785 and 0.8805 and 0.8562
  pT324/pS327 phosphorylation, normalized: 120.88% and 95.08% and 81.14% and 86.44% and 112.69% and 137.00% and 71.21% and 88.89%
C5a1 [3]; [7]
  pT324/pS327 phosphorylation, normalized: 119.78% and 104.86% and 86.39% and 115.09% and 117.11% and 104.93% and 106.33% and 104.22%
C5a1 [3]; Control-HEK293
  Emax: 100%
C5a1 [3]; pEC50 pT324/pS327-C5a1, Control-HEK293
  EC50: 501 nM
C5a1 [3]; pEC50 pT324/pS327-C5a1, ΔGRK2/3-HEK293
  EC50: 631 nM
C5a1 [3]; [9]
  pT324/pS327-C5aR1 Phosphorylation Assay, raw signal: 0.1906 and 0.2011 and 0.1388 and 0.1623 and 0.1923 and 0.1741 and 0.2414 and 0.2236
  pT324/pS327 phosphorylation, normalized: 5.63% and 2.70% and -1.25% and 2.28% and 0.48% and 3.13% and 6.18% and 3.90%
C5a1 [3]; ΔGRK2/3-C5aR1-HEK293, C028 0.1 µM
  pT324/pS327-C5aR1 Phosphorylation Assay, raw signal: 0.3121 and 0.3742 and 0.1921 and 0.224 and 0.2885 and 0.3186 and 0.3064
C5a1 [3]; [10]
  pT324/pS327-C5aR1 Phosphorylation Assay, raw signal: 0.5648 and 0.5979 and 0.3035 and 0.3146 and 0.4385 and 0.4523 and 0.4291 and 0.4848
  pT324/pS327 phosphorylation, normalized: 24.79% and 33.69% and 32.00% and 35.01% and 19.88% and 27.63% and 33.40% and 34.58%
C5a1 [3]; ΔGRK2/3-C5aR1-HEK293, C028 1 µM
  pT324/pS327 phosphorylation, normalized: 57.50% and 41.29% and 46.21% and 58.02% and 41.79% and 38.21% and 68.95% and 53.84%
C5a1 [3]; ΔGRK2/3-C5aR1-HEK293, C028 3 µM
  pT324/pS327-C5aR1 Phosphorylation Assay, raw signal: 0.9175 and 0.9435 and 0.5986 and 0.5479 and 0.9015 and 0.9692 and 0.812 and 0.8433
C5a1 [3]; [11]
  pT324/pS327-C5aR1 Phosphorylation Assay, raw signal: 0.9308 and 0.9846 and 0.7517 and 0.6067 and 1.0697 and 0.9407 and 1.15 and 0.9163
  pT324/pS327 phosphorylation, normalized: 96.12% and 84.19% and 64.50% and 63.55% and 84.08% and 59.71% and 82.71% and 58.42%
C5a1 [3]; ΔGRK2/3-HEK293
  Emax: 79.8%
C5a1 [3]; [12]
  pT324/pS327-C5aR1 Phosphorylation Assay, raw signal: 0.1198 and 0.124 and 0.1546 and 0.0999 and 0.1081 and 0.164 and 0.1821
  pT324/pS327 phosphorylation, normalized: -1.74% and -1.49% and 1.46% and 0.52% and 6.96% and 2.95% and -0.44% and 0.0738%
C5a1 [3]; [13]
  pT324/pS327-C5aR1 Phosphorylation Assay, raw signal: 0.1319 and 0.1326 and 0.1302 and 0.1434 and 0.1164 and 0.1306 and 0.173 and 0.1664
  pT324/pS327 phosphorylation, normalized: -0.96% and 0.29% and 1.64% and 0.38% and 2.18% and 3.49% and 1.29% and 7.61%
C5a1 [3]; ΔGRK5/6-C5aR1-HEK293, C028 0.3 µM
  pT324/pS327-C5aR1 Phosphorylation Assay, raw signal: 0.1652 and 0.1629 and 0.1483 and 0.1906 and 0.1747 and 0.2126 and 0.1807
C5a1 [3]; ΔGRK5/6-HEK293
  Emax: 27.8%
